# Test results from paper PMC12188386, “Selective CBP/EP300 Bromodomain Inhibitors: Novel Epigenetic Tools to Counter TNF-α-Driven Inflammation” (JACS Au, 2025).
# What was measured:
# [1] = system: leukemia, melanoma and breast cancer cell lines; assay: NCI-60 antiproliferation screen; type: cell-based, human; conditions: 10 µM
# Experimental: Adapted from NCI-60 Screening Methodology, one-dose screen:20 Briefly, human tumor cell lines, grown in RPMI 1640 containing 5% FBS and 2 mM L-glutamine, were plated in 96 well plates at densities ranging from 5,000 to 40,000 cells/well 24 h prior to addition of test compounds (here 10 μM 2). 400x solutions of test compounds were prepared in DMSO, then diluted to 2x in medium supplemented with 50 μg/mL gentamicin. 100 μl of this 2x stock was added to cells previously plated in 100 μl medium, resulting in the desired final compound concentration. Cells were fixed in situ with cold TCA: untreated cells at the time of compound addition (Tz) and treated cells 48 h after addition of compound (Ti). Cells were washed, then su f rh damine s uti n μ at . w/v in acetic acid was added to each well and incubated for 10 minutes at room temperature. After washing again, the plates were air dried and bound stain solubilized with 10 mM Trizma base before absorbance was […]
# Percentage growth (%Growth) was calculated as follows:
# when Ti ≥ Tz, %Growth = Ti − Tz x 100 where Ti = absorbance from compound treated cells, Tz = absorbance from untreated cells at time zero, and C = absorbance from control (DMSO) treated cells. […]
# [2] = system: TNF-α-induced cytokine expression in THP-1 cells; assay: cytokine mRNA expression by RT-qPCR; type: cell-based, human; conditions: 1 h co-treatment of THP-1 cells with 10 ng/mL TNF-α and 1 μM compound
# Experimental: For cytokine expression determination, 5x10^5 THP-1 cells were plated on 12 well plates the day prior to treatment with 10 ng/mL recombinant human TNF -α (aa 77-233) protein (R&D systems, 10291 -TA) and compounds at a final concentration of 0.1 % DMSO. In all cases, total
# RNA was extracted using the NucleoSpin® RNA kit (Machery -Nagel) and used for cDNA synthesis with the High -Capacity cDNA Reverse Transcription kit (Applied Biosystems). RT-qPCR reactions were performed using PowerSYBR™ green PCR Master Mix (Applied Biosystems) and a LightCycler® 480 (Roche). cDNA was denatured for 10 min at 95 °C followed by 40 cycles of 15 s at 95 °C and 1 min at 60 °C. Cp values were determined as the maximum of the second derivative and target gene expression was compared to that of hprt from the same sample using the 2-ΔCp method. Gene expression was then normalized to the average of the control samples from the same day, or all biological replicates. […]
# [3] = target: CBP (Homo sapiens, UniProt Q92793); assay: commercial Bromoscan assay; type: binding
# Experimental: was used as the calibration curve. To obtain saturated solutions of the compounds of interest, in duplicates 4.4 µL of a 10 or 5 mM stock in DMSO was added to 436 µL Buffer (PBS, pH = 7.4), to give a final concentration of 100 or 50 µM. Samples were incubated on a shaker (500 rpm) at 37°C for 90 minutes and then filtered (Millex-GV 13 mm, 0.22 µm). 304 µL of the filtrate was mixed with 76 µL of acetonitrile on a dilution plate, from which 350 µL was transferred to a UV-plate and UV-absorption was read using a SpectraMax M5 (Molecular devices). The absorbance was blank-corrected and compared to the calibration curve to […]
# solubility. […]
# lower solubility (2) compounds respectively in a 12.5 w/v% CAPTISOL® solution in water. […] Based on the known density of 12.5 % CAPTISOL® solution (d = 1.05755 g/mL at 25 °C), the precise weight of the resulting solution and so the required amount of water by weight was calculated. […] In duplicates, aliquots of the filtrates were taken and diluted with blank 12.5 % CAPTISOL® water solution in either a 1:14 (higher sol. compounds) or 1:7 (lower sol. compounds) ratio, 350 µL was transferred to a 96-Well Plate (Greiner, UV-star) then UV absorption (240-400 nm, 10 nm steps) was measured using a SpectraMax M5 (Molecular devices). […] The calculated concentrations are available in Table S4. […]
# The bromodomain concentration in the eluates was measured by qPCR. […]
# Chain of CBP (Q92793 1085-1192 limits assumed): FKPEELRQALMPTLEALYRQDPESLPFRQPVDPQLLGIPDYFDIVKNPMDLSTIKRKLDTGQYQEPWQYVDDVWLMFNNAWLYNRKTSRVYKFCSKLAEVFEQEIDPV
smiles,measurement,setting,value
Cc1cc2c(NC(=O)c3cc(NC(=O)c4ccco4)cc(-c4ccn(C)n4)c3)cccc2nn1 [Compound 2],"growth of cancer cell lines (NCI-60), in words",[1],"strongly inhibit the growth of leukemia, melanoma and breast cancer cell lines"
same,"TNF-α-induced expression of il1β, il8, mcp-1 and tnf-α (mRNA)",[2],inhibited expression to a greater extent than the less potent but more soluble inhibitor 5
same,Kd,[3],9 nM
